ChEMBL document CHEMBL2439965, “Dialkylimidazole inhibitors of Trypanosoma cruzi sterol 14α-demethylase as anti-Chagas disease agents” (Bioorg Med Chem Lett, 2013)

Assays:
[1] = Cytotoxicity against human CRL8155 cells; assay type: cell-based
[2] = Inhibition of recombinant Trypanosoma cruzi sterol 14-alpha-demethylase by spectrophotometry
[3] = physchem; conditions: octanol/water
Description: Lipophilicity, log P of the compound

[4] = system: Trypanosoma cruzi; assay: microbe, parasite or virus in culture; conditions: Tulahuen, NIH3T3, 168 h
Description: Antitrypanosomal activity against Trypanosoma cruzi Tulahuen infected in 3T3 cells after 7 days by beta-galactosidase assay

Kd [2]: 490 nM
logP [3]: 5
EC50 [4]: 0.2 nM
Compound: COc1ccc(NCc2cncn2Cc2ccc(-c3ccccc3)cc2N)nc1-c1ccccc1
IC50 [1]: > 5000 nM
